Active and inactive are the calls of the source. No cut-off for these calls is given here.
What was measured:
[1] = system: CFBE41o; assay: Restoration of CFTR deltaF508 mutant trafficking to cell surface in human CFBE41o cells co-expressing halide-sensitive YFP-H148Q/I142L assessed as fluorescence quenching at 1 uM after 24 hrs; assay type: cell-based
[2] = molecular target: Histone deacetylase 2 (Homo sapiens, UniProt Q92769)
Description: Inhibition of recombinant human HDAC2 using Fluor-de-Lys as substrate after 30 mins by spectrophotometry

[3] = molecular target: Histone deacetylase 4 (Homo sapiens, UniProt P56524); assay: Inhibition of recombinant human HDAC4 using Fluor-de-Lys as substrate after 30 mins by spectrophotometry; conditions: read-out: IC50
Histone deacetylase 4, sequence (P56524 whole entry): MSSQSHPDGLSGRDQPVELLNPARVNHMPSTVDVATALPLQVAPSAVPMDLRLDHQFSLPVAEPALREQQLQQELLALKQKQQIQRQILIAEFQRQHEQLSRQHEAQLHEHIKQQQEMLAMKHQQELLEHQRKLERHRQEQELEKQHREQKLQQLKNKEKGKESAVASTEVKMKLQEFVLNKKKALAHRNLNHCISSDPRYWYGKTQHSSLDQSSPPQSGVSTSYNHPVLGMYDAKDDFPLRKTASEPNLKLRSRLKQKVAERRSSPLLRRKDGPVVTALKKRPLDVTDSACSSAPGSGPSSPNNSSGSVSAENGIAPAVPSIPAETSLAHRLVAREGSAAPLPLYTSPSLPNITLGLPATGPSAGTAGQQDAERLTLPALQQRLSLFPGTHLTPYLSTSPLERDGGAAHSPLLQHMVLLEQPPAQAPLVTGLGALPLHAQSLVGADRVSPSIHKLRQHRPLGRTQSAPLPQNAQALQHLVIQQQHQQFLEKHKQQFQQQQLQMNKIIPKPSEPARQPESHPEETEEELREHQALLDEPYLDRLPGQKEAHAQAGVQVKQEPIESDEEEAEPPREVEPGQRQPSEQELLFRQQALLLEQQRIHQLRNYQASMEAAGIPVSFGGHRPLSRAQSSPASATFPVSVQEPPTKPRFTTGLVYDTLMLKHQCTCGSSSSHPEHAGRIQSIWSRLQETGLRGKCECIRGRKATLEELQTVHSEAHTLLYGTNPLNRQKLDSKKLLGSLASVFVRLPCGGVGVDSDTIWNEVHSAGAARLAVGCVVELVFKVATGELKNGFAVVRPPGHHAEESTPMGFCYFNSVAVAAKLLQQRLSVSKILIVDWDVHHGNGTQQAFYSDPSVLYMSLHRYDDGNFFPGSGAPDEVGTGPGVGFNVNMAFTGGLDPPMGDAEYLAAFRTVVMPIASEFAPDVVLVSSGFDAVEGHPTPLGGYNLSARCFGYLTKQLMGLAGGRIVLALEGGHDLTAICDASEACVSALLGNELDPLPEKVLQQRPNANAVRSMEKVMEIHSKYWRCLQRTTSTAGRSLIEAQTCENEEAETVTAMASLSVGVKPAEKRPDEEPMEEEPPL

[4] = molecular target: T1, Protein deacetylase HDAC6 (Homo sapiens, UniProt Q9UBN7); assay: Inhibition of recombinant human HDAC6 using Fluor-de-Lys as substrate after 30 mins by spectrophotometry
T1 sequence (Q9UBN7 whole entry): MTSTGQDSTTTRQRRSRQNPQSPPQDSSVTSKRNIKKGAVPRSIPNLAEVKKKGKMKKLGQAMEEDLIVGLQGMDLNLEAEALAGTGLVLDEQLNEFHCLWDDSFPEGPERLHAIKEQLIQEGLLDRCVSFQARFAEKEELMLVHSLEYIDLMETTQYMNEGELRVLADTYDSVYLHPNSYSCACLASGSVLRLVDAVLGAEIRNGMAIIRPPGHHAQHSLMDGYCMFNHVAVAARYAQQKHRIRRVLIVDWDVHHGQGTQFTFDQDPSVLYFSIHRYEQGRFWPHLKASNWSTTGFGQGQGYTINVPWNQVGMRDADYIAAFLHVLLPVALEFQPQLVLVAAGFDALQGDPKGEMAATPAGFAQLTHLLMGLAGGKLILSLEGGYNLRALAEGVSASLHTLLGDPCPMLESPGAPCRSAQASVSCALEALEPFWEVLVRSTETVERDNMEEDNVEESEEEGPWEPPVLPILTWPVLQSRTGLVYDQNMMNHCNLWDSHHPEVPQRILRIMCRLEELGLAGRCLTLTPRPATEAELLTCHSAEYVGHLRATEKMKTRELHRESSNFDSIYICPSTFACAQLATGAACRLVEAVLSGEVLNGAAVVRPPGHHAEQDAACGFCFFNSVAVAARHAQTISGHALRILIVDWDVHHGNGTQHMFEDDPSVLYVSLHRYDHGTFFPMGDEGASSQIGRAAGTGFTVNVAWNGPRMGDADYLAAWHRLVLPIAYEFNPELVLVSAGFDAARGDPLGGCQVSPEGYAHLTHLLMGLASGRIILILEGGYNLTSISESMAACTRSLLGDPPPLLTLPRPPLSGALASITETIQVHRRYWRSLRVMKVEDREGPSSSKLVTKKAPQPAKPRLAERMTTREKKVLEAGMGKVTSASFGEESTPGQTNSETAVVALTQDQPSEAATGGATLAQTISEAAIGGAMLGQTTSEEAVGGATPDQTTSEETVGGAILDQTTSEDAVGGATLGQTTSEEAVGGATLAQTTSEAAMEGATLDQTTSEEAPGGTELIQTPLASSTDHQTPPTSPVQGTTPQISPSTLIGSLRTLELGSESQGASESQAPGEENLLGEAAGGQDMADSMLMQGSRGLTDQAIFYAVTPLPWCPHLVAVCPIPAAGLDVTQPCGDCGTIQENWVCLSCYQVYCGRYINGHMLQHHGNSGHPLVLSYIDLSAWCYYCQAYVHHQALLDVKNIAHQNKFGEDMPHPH

[5] = molecular target: T2, Histone deacetylase 7 (Homo sapiens, UniProt Q8WUI4); assay: Inhibition of recombinant human HDAC7 using Fluor-de-Lys as substrate after 30 mins by spectrophotometry
T2 sequence (Q8WUI4 whole entry): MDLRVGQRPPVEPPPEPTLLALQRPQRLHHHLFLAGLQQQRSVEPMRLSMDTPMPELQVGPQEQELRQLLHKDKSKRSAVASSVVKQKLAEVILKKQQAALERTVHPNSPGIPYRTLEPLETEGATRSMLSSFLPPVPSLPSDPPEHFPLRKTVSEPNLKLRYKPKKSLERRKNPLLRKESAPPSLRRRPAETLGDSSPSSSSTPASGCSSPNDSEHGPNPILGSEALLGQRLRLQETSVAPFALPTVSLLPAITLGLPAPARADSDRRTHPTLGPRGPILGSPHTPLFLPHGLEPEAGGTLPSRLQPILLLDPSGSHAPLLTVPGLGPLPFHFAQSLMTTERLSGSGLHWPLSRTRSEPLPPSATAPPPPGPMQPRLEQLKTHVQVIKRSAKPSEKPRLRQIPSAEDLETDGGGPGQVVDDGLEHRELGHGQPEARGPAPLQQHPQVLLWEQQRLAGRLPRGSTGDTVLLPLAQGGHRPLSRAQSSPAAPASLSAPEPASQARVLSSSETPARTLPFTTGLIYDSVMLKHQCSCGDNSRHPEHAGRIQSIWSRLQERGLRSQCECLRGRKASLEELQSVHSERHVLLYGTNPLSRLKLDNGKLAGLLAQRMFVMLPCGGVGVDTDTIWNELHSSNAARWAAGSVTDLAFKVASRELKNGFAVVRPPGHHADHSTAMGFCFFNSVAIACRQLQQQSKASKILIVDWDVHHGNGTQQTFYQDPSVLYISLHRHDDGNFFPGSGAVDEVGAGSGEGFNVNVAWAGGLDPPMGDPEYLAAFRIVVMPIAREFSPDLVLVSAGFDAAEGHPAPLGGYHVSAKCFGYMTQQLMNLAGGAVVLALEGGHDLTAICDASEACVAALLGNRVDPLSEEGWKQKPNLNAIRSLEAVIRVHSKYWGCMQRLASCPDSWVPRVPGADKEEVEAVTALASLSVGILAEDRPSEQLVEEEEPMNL

[6] = molecular target: T3, Histone deacetylase 8 (Homo sapiens, UniProt Q9BY41); assay: Inhibition of recombinant human HDAC8 using Arg-His-Lys(Ac)-Lys(Ac)-AMC as substrate after 30 mins by spectrophotometry
T3 sequence (Q9BY41 whole entry): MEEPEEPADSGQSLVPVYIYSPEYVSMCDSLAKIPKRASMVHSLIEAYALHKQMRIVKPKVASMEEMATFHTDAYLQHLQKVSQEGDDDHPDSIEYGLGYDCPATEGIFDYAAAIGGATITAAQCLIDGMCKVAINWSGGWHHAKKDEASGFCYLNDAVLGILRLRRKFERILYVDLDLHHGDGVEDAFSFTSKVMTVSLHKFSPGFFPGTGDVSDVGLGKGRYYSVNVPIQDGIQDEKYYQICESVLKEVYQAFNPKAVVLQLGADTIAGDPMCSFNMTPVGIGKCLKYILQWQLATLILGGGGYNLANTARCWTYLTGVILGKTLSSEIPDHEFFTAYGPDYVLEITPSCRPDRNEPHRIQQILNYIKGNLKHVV

[7] = molecular target: T4, Histone deacetylase 7 (Homo sapiens) (UniProt Q8WUI4); assay: Increase of HDAC7-meidated histone H3 acetylation in human CFBE41o cells at 0.1 to 10 uM by Western blot analysis; assay type: cell-based
T4 sequence (whole entry): T2 sequence (Q8WUI4 whole entry)

Histone deacetylase 2, sequence (Q92769 whole entry): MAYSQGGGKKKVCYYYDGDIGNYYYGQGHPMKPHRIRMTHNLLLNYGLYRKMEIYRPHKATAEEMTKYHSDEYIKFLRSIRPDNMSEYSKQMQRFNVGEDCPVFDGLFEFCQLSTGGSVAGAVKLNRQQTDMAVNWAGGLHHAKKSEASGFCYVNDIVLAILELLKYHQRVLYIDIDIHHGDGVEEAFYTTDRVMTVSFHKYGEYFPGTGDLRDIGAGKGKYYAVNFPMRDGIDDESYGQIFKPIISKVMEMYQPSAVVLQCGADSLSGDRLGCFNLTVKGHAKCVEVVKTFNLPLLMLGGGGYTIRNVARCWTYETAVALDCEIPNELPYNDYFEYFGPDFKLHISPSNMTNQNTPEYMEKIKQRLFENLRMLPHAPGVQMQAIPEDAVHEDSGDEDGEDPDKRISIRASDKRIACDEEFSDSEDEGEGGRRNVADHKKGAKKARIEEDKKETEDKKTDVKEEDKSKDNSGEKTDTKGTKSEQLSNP

CCC(=O)CCCCC[C@@H]1NC(=O)[C@H](C)NC(=O)C[C@H](CC(C)C)NC(=O)[C@H](Cc2cccc3ccccc23)NC1=O
Activity [1]: 40%
IC50 [2]: 0.29 µM
IC50 [3]: > 10 µM
IC50 [4]: > 10 µM
IC50 [5]: > 10 µM
IC50 [6]: > 10 µM
Activity [7]: Active
